Test [1] deals with CPA-induced urinary frequency in rat. Briefly: Effects on cyclophosphamide (CPA)-induced urinary frequency in rat. Format: in vivo. The settings on record: Wistar female rat, 2 days after CPA, value before administration = 100%. Here is the method:
3. Effects of the Compound on the Cyclophosphamide (CPA)-Induced Urinary Frequency in Rat
CPA (150 mg/5 ml/kg) was intraperitoneally administered to a Wistar female rat (Charles river laboratories), and after two days, the experiment was carried out. It was forced to be orally administered with distilled water (30 ml/kg), and then placed in a metabolic cage, and the voided urine weight and the urination frequency were continuously measured for 1 hour. The compound (0.5% methylcellulose solution) 3 or 10 mg/5 ml/kg, or a vehicle (0.5% methylcellulose solution) 5 ml/kg was orally administered, and after 5 to 30 min, the urinary functions were measured after loading water in the same manner as described above. A total voided urine weight was divided by the total urination frequency to determine an effective bladder capacity. With the value before administration of the compound being set at 100%, a rate of change in the effective bladder capacity caused by administration of the compound was determined.
In this test, at 2 days after CPA treatment, the effective bladder capacity was decreased (about 0.5 ml), indicating urinary frequency condition.

Another test deals with T1, trkA receptor (Rattus norvegicus, UniProt P35739).
T1 construct: from tissue; host or cells: Wistar female rat (SLC), skin of the back, in vivo
T1 sequence (P35739 33-799): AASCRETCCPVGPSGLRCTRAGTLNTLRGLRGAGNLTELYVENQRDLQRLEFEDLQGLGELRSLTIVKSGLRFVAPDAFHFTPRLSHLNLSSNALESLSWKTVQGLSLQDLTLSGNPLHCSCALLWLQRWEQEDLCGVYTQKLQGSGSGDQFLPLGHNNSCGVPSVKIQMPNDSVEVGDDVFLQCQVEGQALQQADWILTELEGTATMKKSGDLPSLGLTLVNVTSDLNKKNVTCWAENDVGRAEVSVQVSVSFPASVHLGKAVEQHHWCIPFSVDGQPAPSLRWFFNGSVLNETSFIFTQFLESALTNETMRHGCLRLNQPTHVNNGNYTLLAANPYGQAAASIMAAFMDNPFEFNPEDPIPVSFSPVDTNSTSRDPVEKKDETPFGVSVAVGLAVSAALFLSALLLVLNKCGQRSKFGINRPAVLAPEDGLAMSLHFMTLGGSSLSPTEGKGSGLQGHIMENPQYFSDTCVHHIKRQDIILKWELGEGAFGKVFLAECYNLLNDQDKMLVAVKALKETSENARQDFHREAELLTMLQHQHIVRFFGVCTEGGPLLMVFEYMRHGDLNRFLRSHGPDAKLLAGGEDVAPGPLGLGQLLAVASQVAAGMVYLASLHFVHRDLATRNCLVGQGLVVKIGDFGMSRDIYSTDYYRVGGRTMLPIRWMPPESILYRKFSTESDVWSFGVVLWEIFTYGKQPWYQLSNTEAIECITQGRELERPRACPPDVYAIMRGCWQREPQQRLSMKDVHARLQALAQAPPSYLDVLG
Nature of the test: Inhibitory activity on enhanced vascular permeability caused by NGF in rat (Evans blue). Format: in vivo. Particulars: Wistar female rat, 10 mg/kg oral, NGF intracutaneous 60 min after administration, vehicle group set at 100%. Here is the method:
2. Evaluation of the Inhibitory Activity of the Compound on Enhanced Vascular Permeability Caused by NGF in Rat
The in vivo trkA receptor inhibitory activity of the compound was examined. A Wistar female rat (SLC) were forced to be orally administered with the compound (0.5% methylcellulose solution) 10 mg/3 ml/kg or a vehicle (0.5% methylcellulose solution) 3 ml/kg. Under ether anesthesia performed at 60 min after administration, physiological saline or 1 ug/ml NGF (NGF, mouse derived 2.5S, Alomone) was intracutaneously administered to the back at 50 ul/site, and then immediately a 1% Evans blue solution (dissolved in physiological saline) was administered through caudal vein at 3 ml/kg. At a time point of 10 min after the administration, the skin on the back was taken, and shaken in formamide for 16 hours. After shaking, an absorption of Evans blue extracted with formamide was measured by an absorption meter (wavelength: 620 nm), and the concentration was determined by a calibration curve method. A value obtained by subtracting the concentration of Evans blue at a site administered with physiological saline from the concentration of Evans blue at a site administered with NGF has a function dependent on NGF, and an inhibitory rate of the compound group was determined with a group administered with vehicle being set at 100%. In this test, it was confirmed that the compound of the present invention has an excellent inhibitory activity on enhanced vascular permeability caused by NGF in rat.

For test [2], the target named is T2, Human nerve growth factor receptor (Homo sapiens, UniProt P04629).
T2 construct: expressed in transfected cells
T2 sequence (P04629 33-796): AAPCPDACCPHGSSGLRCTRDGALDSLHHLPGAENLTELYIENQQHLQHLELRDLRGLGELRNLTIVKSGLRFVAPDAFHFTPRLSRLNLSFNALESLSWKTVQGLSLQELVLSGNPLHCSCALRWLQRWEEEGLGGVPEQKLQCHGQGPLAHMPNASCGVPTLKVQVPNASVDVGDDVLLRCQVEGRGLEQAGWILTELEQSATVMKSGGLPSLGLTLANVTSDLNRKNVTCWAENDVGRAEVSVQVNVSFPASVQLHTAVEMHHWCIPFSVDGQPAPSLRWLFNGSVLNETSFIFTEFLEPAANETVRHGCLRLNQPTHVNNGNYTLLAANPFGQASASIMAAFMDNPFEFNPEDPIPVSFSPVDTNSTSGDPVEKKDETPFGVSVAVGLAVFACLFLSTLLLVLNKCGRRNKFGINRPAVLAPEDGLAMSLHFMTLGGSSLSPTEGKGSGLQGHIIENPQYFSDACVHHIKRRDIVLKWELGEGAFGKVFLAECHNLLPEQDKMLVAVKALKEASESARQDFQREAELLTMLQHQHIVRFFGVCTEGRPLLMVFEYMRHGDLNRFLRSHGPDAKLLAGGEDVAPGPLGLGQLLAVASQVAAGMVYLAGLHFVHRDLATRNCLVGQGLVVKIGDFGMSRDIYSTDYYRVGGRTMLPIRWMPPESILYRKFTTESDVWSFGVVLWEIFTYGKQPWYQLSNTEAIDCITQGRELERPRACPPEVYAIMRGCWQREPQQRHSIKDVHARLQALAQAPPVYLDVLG
Briefly: Receptor inhibitory activity using cells expressing a nerve growth factor receptor (NGF-dependent intracellular Ca increase, FLIPR). The class given is cell-based. Particulars: HEK293 cells stably expressing Human nerve growth factor receptor; NGF about 100 to 150 ng/ml; Ca concentration change. How it is done: 1. Experiment to Measure a Receptor Inhibitory Activity Using Cells Expressing a Nerve Growth Factor Receptor
The nerve growth factor receptor inhibitory activity was measured by using the increase in a ligand-dependent calcium concentration in cells as an index. HEK293 cells (American Type Culture Collection) that stably expressed Human nerve growth factor receptor were dispensed onto a 96-well poly-D-lysine-coated plate (Product Name: Biocoat, PDL96W black/clear, by Nippon Becton Dickinson) to a 2×10^4 cells/well at the day before the experiment, and incubated overnight at 37° C. under 5% carbon dioxide (CO2) in a culture medium containing 10% fetal bovine serum (FBS) (Product Name: DMEM, Invitrogen Corporation). The culture medium was replaced by a washing solution: a Hank's balanced salt solution)(HBSS), containing a 1.5 μM loading buffer (fluorescent indicator (Product Name: Fluo-4-AM, […].)), 20 mM 2-[4-(2-hydroxyethyl)-1-piperazinyl]ethanesulfonic acid (HEPES)-sodium hydroxide (NaOH), 2.5 mM Probenecid, 0.1% bovine serum albumin (BSA), and left to stand at room temperature for 3 hours, and the cells were washed using a plate washer (Product Name: ELx405, BIO-TEK instrument Corporation) in which a washing solution had been set up. The compound that had been preliminarily dissolved and diluted in a washing solution was added thereto, and set up in a system for measuring a calcium (Ca) concentration in a cell (Product Name: FLIPR, Molecular Devices Corporation). After 5 minutes, a nerve growth factor (NGF, mouse derived 2.5S, Alomone) corresponding on 80% stimulation of a maximum response was added (to a final concentration of about 100 to 150 ng/ml) to measure the change in Ca concentrations in cells. A difference between a maximum value and a minimum value in Ca concentrations in cells was determined, and kept as measurement data. With a response upon addition of NGF being set at 0%, and a response upon addition of a buffer being set at 100%, the concentration causing 50% inhibition was determined as an IC50 value. In the table, Ex represents Compound No. of Examples as described later. From the results of this test, it was confirmed that the compound of the present invention has a nerve growth factor receptor inhibitory activity.

The test system of test [3] is acetic acid-induced painful behaviors in rat. Nature of the test: Effects on acetic acid-induced painful behaviors (writhing) in rat. Format: in vivo. Particulars: Wistar male rat; 10 mg/kg oral 5 min before 1% acetic acid i.p.; writhing frequency 10-20 min; vehicle group = 100%. Here is the method: 4. Effects of the Compound on Acetic Acid-Induced Painful Behaviors in Rat
1% Acetic acid (99% distilled water) was intraperitoneally administered to a Wistar male rat (Charles river laboratories), and the frequency of pain behavior (writhing) between 10 min and 20 min after administration was measured. The compound (10 mg/5 ml/kg) or a vehicle (0.5% methylcellulose solution) was orally administered 5 mins before the administration of 1% acetic acid. With the frequency of the group administered with the vehicle being set at 100%, the inhibition rate of the writhing behavior frequency by the compound administration was determined.
In general terms: An intraperitoneal irritant provokes the stretching counted in writhing tests.

The mark [4] stands for this setting: dose 10 mg/kg oral, evaluation 30-90 min after administration.
Setting [5] is: dose 3 mg/kg oral, evaluation 5-65 min after administration.

The text below walks through data of US8163746B2, “Azolecarboxamide derivative” (Astellas Pharma Inc., priority 2006, dated 2012).

For `COCCN(C)c1nc(C(=O)Nc2ccccc2N2CCN(CC(N)=O)CC2)cs1.Cl` [Example 356, N-{2-[4-(2-amino-2-oxoethyl)-piperazin-1-yl]phenyl}-2-[(2-methoxyethyl)(methyl)amino]-1,3-thiazole-4-carboxamide hydrochloride], the “Change rate of effective bladder capacity” value (from here on “Change rate”) in test [1] (setting [4]) was 180%. Further, on trkA receptor, the Inhibition rate was determined as 97%. In addition, the IC50 (in general, the concentration that inhibits the measured activity by half) in test [2] stood at 8.8 nM.
As for `COCCN(C)c1nc(C(=O)Nc2cccnc2N2CCC(C(N)=O)CC2)cs1` [Example 380], in test [1] (setting [4]), the “Change rate” value is recorded as 152%. Further, the Inhibition rate is listed as 88% at trkA receptor and 44% in test [3]. Further, half-maximal inhibition in test [2] (IC50) was put at 9.5 nM.
Regarding `COCCN(C)c1nc(C(=O)Nc2cccnc2N2CCN(CC(N)=O)CC2)cs1` [Example 382], the “Change rate” value in test [1] (setting [5]) was 134%. The Inhibition rate stood at 92% at trkA receptor and 38% in test [3]. Besides, the IC50 in test [2] turned out to be 11 nM.
Turning to `Cl.NC(=O)C1CCN(c2ncccc2NC(=O)c2coc(N3CCOCC3)n2)CC1` [Example 501, 1-(3-{[(2-morpholin-4-yl-1,3-oxazol-4-yl)carbonyl]amino}pyridin-2-yl)piperidine-4-carboxamide hydrochloride], the “Change rate” value in test [1] (setting [4]) is recorded as 157%. The Inhibition rate on trkA receptor worked out at 85%; in test [3], 55%. Besides, the IC50 in test [2] is 12 nM.
Turning to `NC(=O)CN1CCN(c2c(F)cccc2NC(=O)c2csc(N3CCC(O)CC3)n2)CC1` [Example 311], the Inhibition rate on trkA receptor is 90%. In addition, half-maximal inhibition in test [2] (IC50) was put at 2.6 nM.
Regarding `NC(=O)C1CCN(c2ccccc2NC(=O)c2csc(-c3ccoc3)n2)CC1` [Example 662, 1-[2-({[2-(3-furyl)-1,3-thiazol-4-yl]carbonyl}amino)phenyl]-4-piperidine carboxamide], half-maximal inhibition in test [2] (IC50) required 2.4 nM.
On to `NC(=O)CN1CCN(c2ccccc2NC(=O)c2csc(N3CCOCC3)n2)CC1` [Example 151], for which, in test [1] (setting [4]), the “Change rate” value is on record as 147%. Moreover, the Inhibition rate stood at 93% at trkA receptor and 53% in test [3]. In addition, the half-maximal inhibitory concentration (IC50) in test [2] came out at 11 nM.
With `NC(=O)CN1CCN(c2ccc(F)cc2NC(=O)c2coc(C3CCOCC3)n2)CC1` [Example 942], in test [1] (setting [5]), the “Change rate” value turned out to be 153%. The Inhibition rate at trkA receptor was 95%. Further, the IC50 in test [2] is 4.6 nM.
